Test results reported in patent US20240409559A1, “CRYSTALLINE FORM OF AZALACTAM COMPOUND” (PFIZER INC., priority 2021, published 2024).

Legend:
[1] = Thermal analysis: dehydration by TGA; assay type: physicochemical
[2] = Moisture sorption/desorption by dynamic vapor sorption (DVS), with post-DVS PXRD; assay type: physicochemical
Description: This example provides characterization data on PF-07265028 Form 1 from a sample obtained using a procedure disclosed in International Patent Publication No. WO2021/220185, using powder x-ray diffraction and dynamic vapor sorption to support the preparation of a disclosure. Form 1 is a crystalline hygroscopic tetrahydrate with multiple powder patterns depending on temperature and humidity. […] The dehydration risk can pose challenges to API isolation, storage and drug product manufacture. Maintaining the proper water content is considered to be difficult for Form 1.

SMILES	Dehydration (TGA)-Hydrated/Solvated, weight loss [1]	Hygroscopicity (in words) [2]	Moisture Sorption/Desorption-Hydrate (DVS): Change in mass-ref (%) ([2]; 75% RH)	Moisture Sorption/Desorption-Hydrate (DVS): Change in mass-ref (%) ([2]; 90% RH)	Crystallinity after dehydration ([2]; after dehydration, PXRD after the water sorption experiment)	Post-DVS PXRD result ([2]; after water sorption experiment)	Moisture Sorption/Desorption-Hydrate (DVS): dehydration state ([2]; at 3% RH)	Moisture Sorption/Desorption-Hydrate (DVS): Change in mass-ref (%) ([2]; at 60% RH)	Moisture Sorption/Desorption-Hydrate (DVS): rehydrate at or below 10% RH ([2]; at or below 10% RH)	Rehydration at high humidity conditions ([2]; high humidity conditions, after dehydration)	Post-DVS PXRD compared with in-going material ([2]; after DVS experiment)	Hygroscopicity: Moisture Sorption (DVS)-Anhydrous ([2]; at 60% RH)	Hygroscopicity: Moisture Sorption (DVS)-Anhydrous ([2]; at 75% RH)	Hygroscopicity: Moisture Sorption (DVS)-Anhydrous ([2]; at 90% RH)
CC[C@@H](N)c1nc(N2CCC[C@H]2C)cc2c1CN(c1cccc(-c3nnc4n3[C@@H](C)CC4)n1)C2=O [Form 1, 4-[(1R)-1-aminopropyl]-2-{6-[(5S)-5-methyl-6,7-dihydro-5H-pyrrolo[2,1-c][1,2,4]triazol-3-yl]pyridin-2-yl}-6-[(2R)-2-methylpyrrolidin-1-yl]-2,3-dihydro-1H-pyrrolo[3,4-c]pyridin-1-one]	~14% weight loss	hygroscopic	~−2.4%	~−0.1%	can lose crystallinity	peak shifting and disorder observed	Completely dehydrated	Change in mass-ref (%) at 60% RH: ~−6.2%;	did not	does not rehydrate				
CC[C@@H](N)c1nc(N2CCC[C@H]2C)cc2c1CN(c1cccc(-c3nnc4n3[C@@H](C)CC4)n1)C2=O [Form 2, 4-[(1R)-1-aminopropyl]-2-{6-[(5S)-5-methyl-6,7-dihydro-5H-pyrrolo[2,1-c][1,2,4]triazol-3-yl]pyridin-2-yl}-6-[(2R)-2-methylpyrrolidin-1-yl]-2,3-dihydro-1H-pyrrolo[3,4-c]pyridin-1-one]		non-hygroscopic									Post-DVS PXRD is consistent with in-	~0.2% at 60% RH	~0.2% at 75% RH	~0.2% at 90% RH
